Data: US10988459B2 (priority 2015, dated 2021)

What follows are compounds tested against human RIP1 kinase domain (2-375) (Homo sapiens (Human), UniProt Q13546) (assay: biochemical). Conditions: Table 1; apparent Ki (Morrison tight-binding fit); 50 nM RIP1 kinase domain, 50 uM ATP, 2 hours incubation; read-out: RIP1 Ki.
Sequence of human RIP1 kinase domain (2-375) (Q13546 2-375): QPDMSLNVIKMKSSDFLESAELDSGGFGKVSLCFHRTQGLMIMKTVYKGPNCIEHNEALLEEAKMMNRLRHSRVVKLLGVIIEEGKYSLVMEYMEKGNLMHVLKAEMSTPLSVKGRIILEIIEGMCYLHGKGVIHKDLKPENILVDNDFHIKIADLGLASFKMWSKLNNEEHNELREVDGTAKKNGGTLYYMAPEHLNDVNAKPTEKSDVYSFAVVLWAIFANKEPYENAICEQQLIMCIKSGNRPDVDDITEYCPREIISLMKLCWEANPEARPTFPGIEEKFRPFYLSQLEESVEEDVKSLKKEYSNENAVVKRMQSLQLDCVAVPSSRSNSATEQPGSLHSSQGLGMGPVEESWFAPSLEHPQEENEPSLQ
Assay type: biochemical
How it was run: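 50 nM purified kinase domain from baculovirus-infected insect cells, incubated 2 h with compound in 50 mM Hepes pH 7.5, 30 mM MgCl2, 1 mM DTT, 50 uM ATP, 0.002% Brij-35, 0.5% DMSO. ADP formation read by Transcreener FP at 633 nm excitation. Ki^app fitted with the Morrison tight-binding equation.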
For `O=C(N[C@H]1CCc2cc(Cl)ccc2NC1=O)c1n[nH]c2c1CCC2` [Example 49, (S)-N-(7-chloro-2-oxo-2,3,4,5-tetrahydro-1H-benzo[b]azepin-3-yl)-1,4,5,6-tetrahydrocyclopenta[c]pyrazole-3-carboxamide], the Ki was 7.6 µM. `CC12Cc3[nH]nc(C(=O)N[C@H]4CCc5cc(Cl)ccc5NC4=O)c3CC1C2` (stereo partly drawn) [Example 50, N-((S)-7-chloro-2-oxo-2,3,4,5-tetrahydro-1H-benzo[b]azepin-3-yl)-5a-methyl-1,4,4a,5,5a,6-hexahydrocyclopropa[f]indazole-3-carboxamide] showed a Ki of 3.9 µM. `CN1C(=O)[C@@H](NC(=O)c2ccc3c(n2)CCCC3)COc2ccccc21` [Example 51, (S)-N-(5-methyl-4-oxo-2,3,4.5-tetrahydrobenzo[b][1,4]oxazepin-3-yl)-5,6,7,8-tetrahydroquinoline-2-carboxamide] showed a Ki of 8.9 µM. In the case of `CN1C(=O)[C@@H](NC(=O)c2nnc3ccc(Cl)nn23)COc2ccccc21` [Example 52, (S)-6-chloro-N-(5-methyl-4-oxo-2,3,4,5-tetrahydrobenzo[b][1,4]oxazepin-3-yl)-[l,2,4]triazolo[4,3-b]pyridazinc-3-carboxamide], the Ki is reported as 1.2 µM. `CC1(C)CCc2c(C(=O)N[C@H]3CCc4cc(Cl)ccc4NC3=O)n[nH]c2C1` [Example 53, (S)-N-(7-chloro-2-oxo-2,3,4,5-tetrahydro-1H-benzo[b]azepin-3-yl)-6,6-dimethyl-4,5,6,7-tetrahydro-1H-indazole-3-carboxamide] was tested, and the Ki was 4.5 µM. `O=C(N[C@H]1COc2ccccc2NC1=O)c1n[nH]c2c1C1CC1CC2` (stereo partly drawn) [Example 54, N-((S)-4-oxo-2,3,4,5-tetrahydrobenzo[b][1,4]oxazepin-3-yl)-3,4,5,5a,6,6a-hexahydrocyclopropa[e]indazole-1-carboxamide] was tested, and the Ki was 7.7 µM. `CN1C(=O)[C@@H](NC(=O)c2n[nH]c3c2CC2CC2C3)COc2ccccc21` (stereo partly drawn) [Example 56, N-((S)-5-methyl-4-oxo-2,3,4,5-tetrahydrobenzo[b][1,4]oxazepin-3-yl)-1,4,4a,5,5a,6-hexahydrocyclopropa[f]indazole-3-carboxamide] gave a Ki of 0.922 µM. With `CC1CCc2[nH]nc(C(=O)N[C@H]3COc4ccccc4NC3=O)c2C1` (stereo partly drawn) [Example 57, 5-methyl-N-((S)-4-oxo-2,3,4,5-tetrahydrobenzo[b][1,4]oxazepin-3-yl)-4,5,6,7-tetrahydro-1H-indazole-3-carboxamide] the Ki was 0.276 µM. With `CN1C(=O)[C@@H](NC(=O)c2n[nH]c3c2C2CC2CC3)COc2ccccc21` (stereo partly drawn) [Example 59, N-((S)-5-methyl-4-oxo-2,3,4,5-tetrahydrobenzo[b][1,4]oxazepin-3-yl)-3,4,5,5a,6,6a-hexahydrocyclopropa[e]indazole-1-carboxamide] the Ki was 1.7 µM. For `CC1CCc2noc(C(=O)N[C@H]3COc4ccccc4NC3=O)c2C1` (stereo partly drawn) [Example 62, 5-methyl-N-((S)-4-oxo-2,3,4,5-tetrahydrobenzo[b][1,4]oxazepin-3-yl)-4,5,6,7-tetrahydrobenzo[c]isoxazole-3-carboxamide], the Ki was 0.254 µM. `CC1CCc2onc(C(=O)N[C@H]3COc4ccccc4NC3=O)c2C1` (stereo partly drawn) [Example 63, 5-methyl-N-((S)-4-oxo-2,3,4,5-tetrahydrobenzo[b][1,4]oxazepin-3-yl)-4,5,6,7-tetrahydrobenzo[d]isoxazole-3-carboxamide] gave a Ki of 0.74 µM. `CN1C(=O)[C@@H](NC(=O)c2noc3c2CC(C(C)(C)C)CC3)COc2ccccc21` (stereo partly drawn) [Example 64, 5-(tert-butyl)-N-((S)-5-methyl-4-oxo-2,3,4,5-tetrahydrobenzo[b][1,4]oxazepin-3-yl)-4,5,6,7-tetrahydrobenzo[d]isoxazole-3-carboxamide] gave a Ki of 0.0735 µM. For `CC(C)(C)C1CCc2onc(C(=O)N[C@H]3COc4ccccc4NC3=O)c2C1` (stereo partly drawn) [Example 65, 5-(tert-butyl)-N-((S)-4-oxo-2,3,4,5-tetrahydrobenzo[b][1,4]oxazepin-3-yl)-4,5,6,7-tetrahydrobenzo[d]isoxazole-3-carboxamide], the Ki was 0.404 µM. In the case of `CC1CCc2noc(C(=O)N[C@H]3COc4ccccc4N(C)C3=O)c2C1` (stereo partly drawn) [Example 66, 5-methyl-N-((S)-5-methyl-4-oxo-2,3,4,5-tetrahydrobenzo[b][1,4]oxazepin-3-yl)-4,5,6,7-tetrahydrobenzo[c]isoxazole-3-carboxamide], the Ki is reported as 0.0374 µM. `CC1CCc2onc(C(=O)N[C@H]3COc4ccccc4N(C)C3=O)c2C1` (stereo partly drawn) [Example 67, 5-methyl-N-((S)-5-methyl-4-oxo-2,3,4,5-tetrahydrobenzo[b][1,4]oxazepin-3-yl)-4,5,6,7-tetrahydrobenzo[d]isoxazole-3-carboxamide] gave a Ki of 0.107 µM. `C[C@H]1CCc2onc(C(=O)N[C@H]3COc4ccccc4N(C)C3=O)c2C1` [Example 68, (S)-5-methyl-N-((S)-5-methyl-4-oxo-2,3,4,5-tetrahydrobenzo[b][1,4]oxazepin-3-yl)-4,5,6,7-tetrahydrobenzo[d]isoxazole-3-carboxamide] gave a Ki of 0.0538 µM. In the case of `C[C@H]1CCc2noc(C(=O)N[C@H]3COc4ccccc4N(C)C3=O)c2C1` [Example 69, (S)-5-methyl-N-((S)-5-methyl-4-oxo-2,3,4,5-tetrahydrobenzo[b][1,4]oxazepin-3-yl)-4,5,6,7-tetrahydrobenzo[c]isoxazole-3-carboxamide], the Ki is reported as 0.0845 µM. With `C[C@@H]1CCc2onc(C(=O)N[C@H]3COc4ccccc4N(C)C3=O)c2C1` [Example 70, (R)-5-methyl-N-((S)-5-methyl-4-oxo-2,3,4,5-tetrahydrobenzo[b][l,4]oxazepin-3-yl)-4,5,6,7-tetrahydrobenzo[d]isoxazole-3-carboxamide] the Ki was 0.219 µM. `C[C@@H]1CCc2noc(C(=O)N[C@H]3COc4ccccc4N(C)C3=O)c2C1` [Example 71, (R)-5-methyl-N-((S)-5-methyl-4-oxo-2,3,4,5-tetrahydrobenzo[b][1,4]oxazepin-3-yl)-4,5,6,7-tetrahydrobenzo[c]isoxazole-3-carboxamide] gave a Ki of 0.0192 µM. `Cc1cc2n(n1)CCC(NC(=O)c1ncn(Cc3ccccc3)n1)C(=O)N2C` (stereo not shown) [Example 72, 1-benzyl-N-(2,4-dimethyl-5-oxo-5,6,7,8-tetrahydro-4H-pyrazolo[1,5-a][1,3]diazepin-6-yl)-1H-1,2,4-triazole-3-carboxamide] was tested, and the Ki was 0.068 µM. `CN1C(=O)[C@@H](NC(=O)c2ncn(Cc3ccccc3)n2)CCn2nccc21` [Example 73, (S)-1-benzyl-N-(4-methyl-5-oxo-5,6,7,8-tetrahydro-4H-pyrazolo[1,5-a][1,3]diazepin-6-yl)-1H-1,2,4-triazole-3-carboxamide] gave a Ki of 0.027 µM. In the case of `CCC1CCc2n[nH]c(C(=O)N[C@H]3COc4ccccc4N(C)C3=O)c2C1` (stereo partly drawn) [Example 74, 5-ethyl-N-((S)-5-methyl-4-oxo-2,3,4,5-tetrahydrobenzo[b][1,4]oxazepin-3-yl)-4,5,6,7-tetrahydro-2H-indazole-3-carboxamide], the Ki is reported as 0.013 µM. Compound `CN1C(=O)[C@@H](NC(=O)c2ncn3ccc(C(F)(F)F)cc23)CCn2nccc21` [Example 75, (S)-N-(4-methyl-5-oxo-5,6,7,8-tetrahydro-4H-pyrazolo[1,5-a][1,3]diazepin-6-yl)-7-(trifluoromethyl)imidazo[1,5-a]pyridine-1-carboxamide] has a Ki of 0.231 µM. `Cc1cc2n(n1)CCC(NC(=O)c1ncn3ccc(C(F)(F)F)cc13)C(=O)N2C` (stereo not shown) [Example 76, N-(2,4-dimethyl-5-oxo-5,6,7,8-tetrahydro-4H-pyrazolo[1,5-a][1,3]diazepin-6-yl)-7-(trifluoromethyl)imidazo[1,5-a]pyridine-1-carboxamide] gave a Ki of 0.536 µM. `Cc1cc2n(n1)CC[C@H](NC(=O)c1nnc(Cc3ccccc3)[nH]1)C(=O)N2C` [Example 77, (S)-5-benzyl-N-(2,4-dimethyl-5-oxo-5,6,7,8-tetrahydro-4H-pyrazolo[1,5-a][1,3]diazepin-6-yl)-4H-1,2,4-triazole-3-carboxamide] gave a Ki of 0.058 µM. `CN1C(=O)[C@@H](NC(=O)c2n[nH]c3ccc(Cl)cc23)COc2ccccc21` [Example 78, (S)-5-chloro-N-(5-methyl-4-oxo-2,3,4,5-tetrahydrobenzo[b][1,4]oxazepin-3-yl)-1H-indazole-3-carboxamide] showed a Ki of 0.021 µM. In the case of `CN1C(=O)[C@@H](NC(=O)c2nnc(Cc3ccccc3)[nH]2)CCn2nc(C3CC3)cc21` [Example 79, (S)-5-benzyl-N-(2-cyclopropyl-4-methyl-5-oxo-5,6,7,8-tetrahydro-4H-pyrazolo[1,5-a][1,3]diazepin-6-yl)-4H-1,2,4-triazole-3-carboxamide], the Ki is reported as 0.034 µM.

Same assay, conditions: read-out: RIP1 Ki
`C[C@H]1CCc2[nH]nc(C(=O)N[C@H]3COc4ccccc4N(C)C3=O)c2C1` [Example 55, (S)-5-methyl-N-((S)-5-methyl-4-oxo-2,3,4,5-tetrahydrobenzo[b][1,4]oxazepin-3-yl)-4,5,6,7-tetrahydro-1H-indazole-3-carboxamide] was tested, and the Ki was 0.103 µM. Compound `CN1C(=O)[C@@H](NC(=O)c2n[nH]c3c2C[C@@H](C(C)(C)C)CC3)COc2ccccc21` [Example 58, (S)-5-(tert-butyl)-N-((S)-5-methyl-4-oxo-2,3,4,5-tetrahydrobenzo[b][1,4]oxazepin-3-yl)-4,5,6,7-tetrahydro-1H-indazole-3-carboxamide] has a Ki of 0.121 µM. With `C[C@@H]1CCc2[nH]nc(C(=O)N[C@H]3COc4ccccc4N(C)C3=O)c2C1` [Example 60, (R)-5-methyl-N-((S)-5-methyl-4-oxo-2,3,4,5-tetrahydrobenzo[b][1,4]oxazepin-3-yl)-4,5,6,7-tetrahydro-1H-indazole-3-carboxamide] the Ki was 0.0156 µM. In the case of `CN1C(=O)[C@@H](NC(=O)c2n[nH]c3c2C[C@H](C(C)(C)C)CC3)COc2ccccc21` [Example 61, (R)-5-(tert-butyl)-N-((S)-5-methyl-4-oxo-2,3,4,5-tetrahydrobenzo[b][1,4]oxazepin-3-yl)-4,5,6,7-tetrahydro-1H-indazole-3-carboxamide], the Ki is reported as 0.048 µM.
